Test results from the Kinase Knowledgebase extract (Sharma et al. 2016).
pIC50: −log10 of the molar value.

Legend:
PIK3CA (bovine) = PIK3CA (bovine) (UniProt P32871); experiment: Inhibition of PIK3CA Kinase Activity
PIK3CB = PIK3CB (UniProt P42338); experiment: Inhibition of PIK3CB Kinase Activity
CDK2 = CDK2 (UniProt P24941); experiment: Enzyme Assay
PIK3CG = PIK3CG (UniProt P48736); experiment: Inhibition of PIK3CG Kinase Activity
PIK3CG, sequence (P48736 whole entry, looked up): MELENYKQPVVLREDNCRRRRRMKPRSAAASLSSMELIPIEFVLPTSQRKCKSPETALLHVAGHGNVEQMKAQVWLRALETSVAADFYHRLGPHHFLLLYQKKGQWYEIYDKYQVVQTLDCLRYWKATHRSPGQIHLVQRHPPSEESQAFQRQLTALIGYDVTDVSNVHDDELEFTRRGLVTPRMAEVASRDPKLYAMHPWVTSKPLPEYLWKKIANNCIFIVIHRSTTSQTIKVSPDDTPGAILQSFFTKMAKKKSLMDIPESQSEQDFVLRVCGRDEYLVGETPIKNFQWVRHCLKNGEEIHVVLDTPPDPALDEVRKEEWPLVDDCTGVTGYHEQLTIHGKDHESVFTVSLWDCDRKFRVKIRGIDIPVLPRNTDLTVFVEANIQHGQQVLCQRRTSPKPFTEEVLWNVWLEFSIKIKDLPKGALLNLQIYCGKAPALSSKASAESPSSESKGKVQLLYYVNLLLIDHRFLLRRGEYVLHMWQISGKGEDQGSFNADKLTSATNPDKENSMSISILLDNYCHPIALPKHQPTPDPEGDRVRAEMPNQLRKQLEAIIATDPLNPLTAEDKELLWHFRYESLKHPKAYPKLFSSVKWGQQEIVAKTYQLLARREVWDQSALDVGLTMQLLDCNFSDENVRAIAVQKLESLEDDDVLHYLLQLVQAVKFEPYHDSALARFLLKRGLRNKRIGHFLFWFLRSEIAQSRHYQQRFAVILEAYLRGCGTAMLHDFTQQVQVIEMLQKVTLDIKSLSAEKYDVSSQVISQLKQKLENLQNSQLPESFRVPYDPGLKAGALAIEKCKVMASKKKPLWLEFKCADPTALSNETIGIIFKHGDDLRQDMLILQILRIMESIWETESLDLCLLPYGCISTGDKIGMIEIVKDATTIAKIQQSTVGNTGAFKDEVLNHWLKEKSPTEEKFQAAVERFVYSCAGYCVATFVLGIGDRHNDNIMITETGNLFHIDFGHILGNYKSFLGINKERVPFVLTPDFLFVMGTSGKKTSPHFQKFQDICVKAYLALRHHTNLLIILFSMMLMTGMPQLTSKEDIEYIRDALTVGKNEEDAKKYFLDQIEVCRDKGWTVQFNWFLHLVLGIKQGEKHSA

PIK3CA (bovine), sequence (P32871 whole entry, looked up): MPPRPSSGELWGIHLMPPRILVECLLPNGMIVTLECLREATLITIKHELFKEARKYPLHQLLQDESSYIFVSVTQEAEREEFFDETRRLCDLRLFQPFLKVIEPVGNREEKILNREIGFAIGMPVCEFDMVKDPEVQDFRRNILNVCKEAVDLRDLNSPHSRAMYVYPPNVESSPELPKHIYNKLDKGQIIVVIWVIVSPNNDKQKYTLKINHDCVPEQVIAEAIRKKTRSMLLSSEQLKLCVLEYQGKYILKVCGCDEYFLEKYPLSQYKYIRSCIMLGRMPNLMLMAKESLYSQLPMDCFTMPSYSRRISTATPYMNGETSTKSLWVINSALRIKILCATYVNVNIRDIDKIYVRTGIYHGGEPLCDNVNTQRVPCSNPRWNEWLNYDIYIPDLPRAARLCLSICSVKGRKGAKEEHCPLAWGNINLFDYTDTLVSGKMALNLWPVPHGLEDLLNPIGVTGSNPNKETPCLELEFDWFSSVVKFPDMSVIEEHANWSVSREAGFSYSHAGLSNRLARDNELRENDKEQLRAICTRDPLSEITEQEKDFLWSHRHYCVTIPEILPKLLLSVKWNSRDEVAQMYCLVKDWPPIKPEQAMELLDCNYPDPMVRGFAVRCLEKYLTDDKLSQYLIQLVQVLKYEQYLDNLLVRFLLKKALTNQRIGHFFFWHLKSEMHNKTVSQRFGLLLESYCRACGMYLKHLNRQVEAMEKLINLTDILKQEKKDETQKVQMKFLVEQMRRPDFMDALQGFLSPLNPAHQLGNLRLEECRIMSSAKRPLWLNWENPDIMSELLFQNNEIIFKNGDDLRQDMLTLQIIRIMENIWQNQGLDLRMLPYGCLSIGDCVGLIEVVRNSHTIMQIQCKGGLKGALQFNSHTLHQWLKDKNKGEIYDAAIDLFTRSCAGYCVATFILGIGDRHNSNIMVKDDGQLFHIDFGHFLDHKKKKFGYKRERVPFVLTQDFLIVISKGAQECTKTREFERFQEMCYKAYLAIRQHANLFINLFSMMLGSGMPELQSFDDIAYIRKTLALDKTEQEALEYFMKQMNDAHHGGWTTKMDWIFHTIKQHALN
PIK3CB, sequence (P42338 whole entry, looked up): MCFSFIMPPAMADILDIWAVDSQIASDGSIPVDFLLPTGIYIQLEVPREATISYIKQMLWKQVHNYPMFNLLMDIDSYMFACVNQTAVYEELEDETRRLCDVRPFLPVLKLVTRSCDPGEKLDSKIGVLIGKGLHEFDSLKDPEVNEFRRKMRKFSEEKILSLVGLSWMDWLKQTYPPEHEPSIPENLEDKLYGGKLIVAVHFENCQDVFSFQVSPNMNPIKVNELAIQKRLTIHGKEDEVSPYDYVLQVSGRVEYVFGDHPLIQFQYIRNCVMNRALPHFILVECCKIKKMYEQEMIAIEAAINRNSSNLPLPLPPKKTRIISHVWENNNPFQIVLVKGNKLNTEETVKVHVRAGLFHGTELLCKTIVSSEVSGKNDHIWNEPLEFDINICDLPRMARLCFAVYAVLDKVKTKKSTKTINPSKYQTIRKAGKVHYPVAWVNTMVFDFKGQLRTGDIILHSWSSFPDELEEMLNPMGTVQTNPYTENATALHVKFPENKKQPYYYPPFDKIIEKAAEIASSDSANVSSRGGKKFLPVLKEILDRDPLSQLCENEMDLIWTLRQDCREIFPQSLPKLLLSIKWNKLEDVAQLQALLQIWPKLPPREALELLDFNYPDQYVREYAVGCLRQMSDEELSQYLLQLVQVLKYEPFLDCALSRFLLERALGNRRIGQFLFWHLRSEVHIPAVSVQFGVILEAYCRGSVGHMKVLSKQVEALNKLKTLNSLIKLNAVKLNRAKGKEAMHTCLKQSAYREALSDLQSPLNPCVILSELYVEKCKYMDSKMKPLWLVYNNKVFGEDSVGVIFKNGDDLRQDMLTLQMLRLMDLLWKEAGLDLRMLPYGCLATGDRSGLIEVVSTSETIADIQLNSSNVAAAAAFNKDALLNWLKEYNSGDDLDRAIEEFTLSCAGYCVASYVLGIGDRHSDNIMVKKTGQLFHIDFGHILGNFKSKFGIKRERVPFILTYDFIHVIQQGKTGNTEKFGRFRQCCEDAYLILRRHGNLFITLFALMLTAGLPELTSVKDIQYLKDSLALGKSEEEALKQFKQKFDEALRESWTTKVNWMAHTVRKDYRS

| Structure (SMILES) | pIC50 (PIK3CA (bovine)) | further results |
| --- | --- | --- |
| Oc1ccc2nc(-c3ccccc3O)nc(N3CCOCC3)c2c1 | 5.54 |  |
| Oc1cccc(-c2nc(N3CCOCC3)c3ccncc3n2)c1 | 7.72 |  |
| Oc1cccc(-c2nc(N3CCOCC3)c3cnccc3n2)c1 | 7.89 |  |
| OCc1ccc(-c2nc(N3CCOCC3)c3cc(O)ccc3n2)cc1 | 5.43 |  |
| Oc1cccc(-c2nc(N3CCOCC3)c3sccc3n2)c1 | 8.70 | pIC50 (PIK3CB): 7.80; pIC50 (CDK2): 4.55; pIC50 (PIK3CG): 6.18 |
| Oc1ccc2nc(-c3ccccc3)nc(N3CCC(O)CC3)c2c1 | 4.92 |  |
| COCCNc1nc(-c2ccccc2)nc2ccc(O)cc12 | 4.82 |  |
| Oc1cccc(-c2nc(N3CCOCC3)c3cc(O)ccc3n2)c1 | 7.12 |  |
| Oc1cccc(-c2nc(N3CCOCC3)c3ncccc3n2)c1 | 7.57 |  |
| Nc1ccc(-c2nc(N3CCOCC3)c3cc(O)ccc3n2)cc1 | 6.03 |  |
| Nc1cccc(-c2nc(N3CCOCC3)c3cc(O)ccc3n2)c1 | 6.36 |  |
| Oc1cccc2nc(-c3ccccc3)nc(N3CCOCC3)c12 | < 4.52 |  |
| COc1ccc2nc(-c3ccccc3)nc(N3CCOCC3)c2c1 | 5.68 |  |
| O=C1CCN(c2nc(-c3ccccc3)nc3ccc(O)cc23)CC1 | 4.68 |  |
| OCc1cccc(-c2nc(N3CCOCC3)c3cc(O)ccc3n2)c1 | 7.00 |  |
| Nc1ccccc1-c1nc(N2CCOCC2)c2cc(O)ccc2n1 | 5.41 |  |
| Oc1cccc(-c2nc(N3CCOCC3)c3ccccc3n2)c1 | 7.25 |  |
| c1ccc(-c2nc(N3CCOCC3)c3ccccc3n2)cc1 | 4.85 |  |
| Oc1ccc(-c2nc(N3CCOCC3)c3cc(O)ccc3n2)cc1 | 5.55 |  |
| COc1cccc(-c2nc(N3CCOCC3)c3cc(O)ccc3n2)c1 | 6.22 |  |
| Oc1ccc2nc(-c3cccc(F)c3)nc(N3CCOCC3)c2c1 | 5.74 |  |
| Oc1ccc2nc(-c3ccccc3)nc(N3CCCCC3)c2c1 | < 4.22 |  |
| Oc1ccc2nc(-c3ccccc3)nc(N3CCOCC3)c2c1 | 5.89 |  |
| Oc1ccc2c(N3CCOCC3)nc(-c3ccccc3)nc2c1 | 5.01 |  |
